Test results as given in article PMC10587169, “Tuning aminopolycarboxylate chelators for efficient complexation of trivalent actinides” (Scientific Reports, 2023).
Like-named read-outs stand apart in the source and are kept apart here.

How the values were obtained:
[1] = Potentiometric titration, acid dissociation constants; assay type: physicochemical
Protocol: All potentiometric titrations were run using a Mettler Toledo T90 autotitrator equipped with an Orion Ross Semi-micro glass electrode with the junction stabilization solution changed to 5.0 M NaCl to prevent precipitation with perchlorate media. All titrations were performed under a hydrated nitrogen atmosphere. The forward titration measurements (acidic titrand, basic titrant) of H4octapa in nitrate electrolyte medium were performed as described previously due to the limited solubility of this ligand in a 2 M (Na^+/H^+)ClO4 medium. Acid dissociation constants of H4octapa in perchlorate electrolyte medium were also determined by titrating in reverse (basic titrand, acidic titrant) to alleviate the solubility concerns. Titrations of H4pypa-peg were performed in reduced-volume glass titration cups (10 mL nominal) due to the limited supply of this ligand. All potentiometric titrations were run in triplicate. The choice of using p[H^+] was explained in Heathman et al.[15], and the calibration of the p[H^+] scale utilized Gran analysis through titration of a strong acid with the base used in the potentiometric titrations[29]–[31]. Potentiometric titration data was modeled and analyzed using Hyperquad2013 to determine acid dissociation and metal complexation stability constants[32],[33].
Changes in hydrogen ion concentration were monitored using a glass electrode for a solution of H4octapa as either NaOH or HClO4 were titrated into the solutions. […] The experimental potentiometric curve collected for a forward titration of H4octapa in (Na^+/H^+)NO3 is presented in Fig. 3A, alongside the distribution curves for the identified HnL species. Following those studies, the acid/base conditions were reversed and octapa^4− was titrated in 2.0 M (Na^+/H^+)ClO4 using HClO4 (SI Figure S7). The potentiometric curves are well respresented by five proton dissociation equilibria. The calculated equilibrium constants correspond with the protonation reactions for two aliphatic amines, two pyridine nitrogens, and one carboxylate group with the protonation sequence described by Eq. (2). The acid dissociation constants (pKa = − log10Ka) for H4octapa are reported in Table 1 alongside previously reported values in the literature.
The experimental potentiometric titration curve and the distribution curves for the associated HnL species for H4pypa-peg are presented in Fig. 3B. […] For comparison, the protonation equilibria of H4edta were also studied in 2.0 M (Na^+/H^+)ClO4. The pKa values for H4edta are listed in Table 2 and collected potentiometric titration curves (forward and reverse) are presented in SI Figure S8. For H4pypa-peg coordination pocket the protonation of H9L^5+, H7L^3+, and H6L^2+ cannot be characterized using a glass electrode. The H6L^2+ species likely represents a protonated carboxylate group, while H5L^+ and H4L may describe the pyridinecarboxylate nitrogens. The equilibrium involving H3L^− likely describes the dissociation of the protonated pyridine nitrogen, while the two most basic species in this ligand (HL^3− and H2L^2−) are likely the bridging amines in the H4pypa-peg backbone. Equation (3) describes the protonation sequence for H4pypa-peg.3 H10-aL^+6-a⇆H9-aL^+5-a+H^+Ka=H^+·H9-aL^+5-a/H10-aL^+6-aa=1…9

[2] = Spectrophotometric titration; assay type: binding
Description: Changes in the optical absorption characteristics of Nd^3+ were monitored using a Cary 6000i UV/Vis–NIR Spectrometer (Agilent) using 1 cm semimicro quartz cuvettes (Starna) in double-beam mode, where the ^4I9/2 → ^4G5/2, ^2G7/2 transitions[34] were monitored between 560 and 605 nm with a 0.075 nm interval and 1.0 nm spectral bandwidth. Changes in the optical absorption characteristics of ^243Am^3+ and ^248Cm^3+ were monitored using a Flame-S-VIS–NIR-ES spectrometer coupled to a DH-2000-BAL dual-mode light source (Ocean Optics) with a single 1 cm semimicro quartz cuvette (Starna). The light source and spectrometer were optically coupled to the CUV sample (Ocean Optics) holder using 2 m fiberoptics (200 μm) and the parameters for acquisition were 0.369 nm interval and 1000 scans averaged with an integration time/scan 1.08 ms (total acquisition time ~ 1 s). The complexation of Am^3+ with the ligands was monitored in the 495–525 nm spectral region, looking at the ^7F0′ → ^5L6′ transition[23],[35]. For Cm^3+, ligand complexation was monitored in the 365–410 nm spectral region, looking at the ^8S7/2 → ^2Ji (i = {15}, {13,9}, {11,17}) manifold transitions[24],[25],[36]. Changes in aqueous p[H^+] were monitored throughout each titration step using a Gran-calibrated Orion Ross Semi-micro glass electrode. Baseline correction was applied to all datasets and was typically a simple linear subtraction. However, in the case of the ^248Cm/H4pypa-peg spectra, the tail end of the ligand absorption overlapped the hypersensitive Cm peaks. In this case the background correction was applied using a 5th-order empirical polynomial. Finally, the spectroscopic data was analyzed using the HypSpec software package[33],[37]. Full details of the titrand and titrant solutions for each titration are included in the Supplemental Information.
To further validate the competitive solvent extraction methodology the complexation of Am^3+ with H4octapa and Cm^3+ with H4pypa-peg was studied spectrophotometrically. These titrations monitored the ligand-induced changes on the optical absorption spectra of free Am^3+ at λmax = 503.0 nm, (Fig. 8A) and Cm^3+ at λmax = 375.0, 380.6, 396.5 nm, (Fig. 8C). The presence of both ligands induced new red-shifted absorption signatures in each monitored titration. […] Excellent agreement between the solvent extraction and spectrophotometry was attained for the β101 values for the formation of [Am(octapa)]^− albeit the uncertainty associated with a constant measured using competitive liquid–liquid distribution is rather large and points out the shortcomings of this method. A variance between two analytical methods is larger for [Cm(pypa-peg)]^− possibly due to free ligand absorption interferences.
2. Spectrophotometric titration parameters […]
H4octapa, at p[H+] ≈ 5.0 – 6.0. […]
Am3+: The titrand solution consisting of 0.806 mL of 0.791 mM Am(ClO4)3 at p[H+] = 1.41 was
blended with 0.787 mL of titrant solution containing 0.801 mM Am3+ and 15.09 mM
H4pypa-peg at p[H+] ≈ 5 – 6. […]

[3] = aqueous 2.0 M (Na+/H+)ClO4 electrolyte solution, I = 2.0 M (Na+/H+)ClO4 at 20.0 °C, read-out: pKa H2L species
[4] = aqueous 2.0 M (Na+/H+)ClO4 electrolyte solution, I = 2.0 M (Na+/H+)ClO4 at 20.0 °C, read-out: pKa H3L species
[5] = aqueous 2.0 M (Na+/H+)ClO4 electrolyte solution, I = 2.0 M (Na+/H+)ClO4 at 20.0 °C, read-out: pKa H4L species
[6] = aqueous 2.0 M (Na+/H+)ClO4 electrolyte solution, I = 2.0 M (Na+/H+)ClO4 at 20.0 °C, read-out: pKa H5L species
[7] = aqueous 2.0 M (Na+/H+)ClO4 electrolyte solution, I = 2.0 M (Na+/H+)ClO4 at 20.0 °C, read-out: pKa H6L species
[8] = aqueous 2.0 M (Na+/H+)ClO4 electrolyte solution, I = 2.0 M (Na+/H+)ClO4 at 20.0 °C, read-out: pKa HL species
[9] = I = 2.0 M (Na+/H+)ClO4 at 20.0 °C (spectrophotometric titration)

## O=C(O)CN(CCN(CC(=O)O)CC(=O)O)CCN(CC(=O)O)CC(=O)O [H5dtpa, diethylenetriamine-N,N,N',N'',N''-pentaacetic acid]
[1]; [3]
  pKa: 8.31
[1]; [4]
  pKa: 5.57
[1]; [5]
  pKa: 4.38
[1]; [6]
  pKa: 2.53
[1]; [7]
  pKa: 2.41
[1]; [8]
  pKa: 9.5
[2]; [9]
  logβ101 (ML), Am3+: 21.45(1)
  logβ111 (MHL), Am3+: 22.62(2)

## O=C(O)CN(Cc1cc(-c2cn(CCOCCOCCO)nn2)cc(CN(CC(=O)O)Cc2cccc(C(=O)O)n2)n1)Cc1cccc(C(=O)O)n1 [H4pypa-peg, 6,6'-((((4-(1-(2-(2-(2-hydroxyethoxy)ethoxy)ethyl)-1H-1,2,3-triazol-4-yl)pyridine-2,6-diyl)bis–(methylene))bis–((carboxymethyl)azanediyl))bis–(methylene)) dipicolinic acid]
[1]; aqueous 2.0 M (Na+/H+)ClO4 electrolyte solution, I = 2.0 M (Na+/H+)ClO4 (Table 2), read-out: pKa H2L2-
  pKa: 6.45
[1]; aqueous 2.0 M (Na+/H+)ClO4 electrolyte solution, I = 2.0 M (Na+/H+)ClO4 (Table 2), read-out: pKa H3L-
  pKa: 3.92
[1]; aqueous 2.0 M (Na+/H+)ClO4 electrolyte solution, I = 2.0 M (Na+/H+)ClO4 (Table 2), read-out: pKa H4L(aq)
  pKa: 3.37
[1]; aqueous 2.0 M (Na+/H+)ClO4 electrolyte solution, I = 2.0 M (Na+/H+)ClO4 (Table 2), read-out: pKa H5L+
  pKa: 2.45
[1]; aqueous 2.0 M (Na+/H+)ClO4 electrolyte solution, I = 2.0 M (Na+/H+)ClO4 (Table 2), read-out: pKa H6L2+
  pKa: 1.43
[1]; aqueous 2.0 M (Na+/H+)ClO4 electrolyte solution, I = 2.0 M (Na+/H+)ClO4 (Table 2), read-out: pKa HL3-
  pKa: 7.44

## O=C(O)CN(CCN(CC(=O)O)Cc1cccc(C(=O)O)n1)Cc1cccc(C(=O)O)n1 [H4octapa, 6,6′-((ethane-1,2-diylbis–((carboxymethyl)azanediyl))bis–(methylene))dipicolinic acid]
[1]; [3]
  pKa: 5.57
[1]; [4]
  pKa: 3.82
[1]; [5]
  pKa: 3.18
[1]; [6]
  pKa: 1.63
[1]; [8]
  pKa: 8.41
[1]; aqueous 2.0 M (Na+/H+)NO3 electrolyte solution, I = 2.0 M (Na+/H+)NO3 at 25.0 °C, read-out: pKa H2L2-
  pKa: 5.27
[1]; aqueous 2.0 M (Na+/H+)NO3 electrolyte solution, I = 2.0 M (Na+/H+)NO3 at 25.0 °C, read-out: pKa H3L-
  pKa: 3.63
[1]; aqueous 2.0 M (Na+/H+)NO3 electrolyte solution, I = 2.0 M (Na+/H+)NO3 at 25.0 °C, read-out: pKa H4L(aq)
  pKa: 3
[1]; aqueous 2.0 M (Na+/H+)NO3 electrolyte solution, I = 2.0 M (Na+/H+)NO3 at 25.0 °C, read-out: pKa H5L+
  pKa: 1.63
[1]; aqueous 2.0 M (Na+/H+)NO3 electrolyte solution, I = 2.0 M (Na+/H+)NO3 at 25.0 °C, read-out: pKa HL3-
  pKa: 8.16
[2]; spectrophotometrically measured, I = 2.0 M (Na+/H+)NO3, T = 25 ± 1 °C, ±3σ
  logβ101 (ML), Am3+: 19.28 (1)

## O=C(O)CN(CCN(CCN(CC(=O)O)CC(=O)O)CC(=O)O)CCN(CC(=O)O)CC(=O)O [H6ttha, triethylenetetraamine-N,N,N',N'',N''',N'''-hexaacetic acid]
[1]; [3]
  pKa: 8.67
[1]; [4]
  pKa: 6.27
[1]; [5]
  pKa: 4.12
[1]; [6]
  pKa: 2.7
[1]; [7]
  pKa: 2.19
[1]; aqueous 2.0 M (Na+/H+)ClO4 electrolyte solution, I = 2.0 M (Na+/H+)ClO4 at 20.0 °C, read-out: pKa H7L species
  pKa: 1.86
[1]; [8]
  pKa: 9.48
[2]; [9]
  logβ101 (ML), Am3+: 23.25(3)
  logβ111 (MHL), Am3+: 27.02(3)
  logβ121 (MH2L), Am3+: 28.84(2)
